Results reported in patent US20150141411A1, “SUBSTITUTED 3,4-DIHYDRO-2H-PYRIDO[1,2-A]PYRAZINE-1,6-DIONE DERIVATIVES USEFUL FOR THE TREATMENT OF (INTER ALIA) ALZHEIMER'S DISEASE” (Janssen Pharmaceuticals, Inc., priority 2012, published 2015).

Legend:
Aβ42 = assay: In vivo efficacy: brain soluble Aβ42 in non-transgenic rodents (MSD electrochemiluminescence multiplex); design: species or system mouse; details: Mus musculus, po, 4 h, dose 30 mg/kg oral dosing, brain soluble fraction, animals sacrificed after 4 h, untreated animals (Ctrl) set at 100, read-out: Aβ42 (% vs Ctrl)_Mean
Text: (§1) To determine whether acute administration of an Aβ42 lowering agent would reduce Aβ42 levels in vivo, non-transgenic rodents, e.g. mice or rats were used. Animals treated with the Aβ42 lowering agent were examined and compared to those untreated or treated with vehicle and brain levels of soluble Aβ42, Aβ40, Aβ38, and Aβ37 were quantitated by Meso Scale Discovery's (MSD) electrochemiluminescence detection technology. Treatment periods varied from hours (h) to days and were adjusted based on the results of the Aβ42 lowering once a time course of onset of effect could be established.
(§2) A typical protocol for measuring Aβ42 lowering in vivo is shown but it is only one of many variations that could be used to optimize the levels of detectable Aβ. For example, Aβ42 lowering compounds were formulated in 20% of Captisol® (a sulfo-butyl ether of β-cyclodextrin) in water or 20% hydroxypropyl βcyclodextrin. The Aβ42 lowering agents were administered as a single oral dose or by any acceptable route of administration to overnight fasted animals. After 4 h, the animals were sacrificed and Aβ42 levels were analysed.
(§3) Blood was collected by decapitation and exsanguinations in EDTA-treated collection tubes. Blood was centrifuged at 1900 g for 10 minutes (min) at 4° C. and the plasma recovered and flash frozen for later analysis. The brain was removed from the cranium and hindbrain. The cerebellum was removed and the left and right hemisphere were separated. The left hemisphere was stored at −18° C. for quantitative analysis of test compound levels. The right hemisphere was rinsed with phosphate-buffered saline (PBS) buffer and immediately frozen on dry ice and stored at −80° C. until homogenization for biochemical assays.
(§4) Mouse brains from non-transgenic animals were resuspended in 8 volumes of 0.4% DEA (diethylamine)/50 mM NaCl containing protease inhibitors (Roche-11873580001 or 04693159001) per gram of tissue, e.g. for 0.158 g brain, add 1.264 ml of 0.4% DEA. All samples were homogenized in the FastPrep-24 system (MP Biomedicals) using lysing matrix D (MPBio #6913-100) at 6 m/s for 20 seconds. Homogenates were centrifuged at 20800×g for 5 min and supernatants collected. Supernatants were centrifuged at 221.300×g for 50 min. The resulting high speed supernatants were then transferred to fresh eppendorf tubes. Nine parts of supernatant were neutralized with 1 part 0.5 M Tris-HCl pH 6.8 and used to quantify Aβ.
(§5) To quantify the amount of Aβ42, Aβ40, Aβ38, and Aβ37 in the soluble fraction of the brain homogenates, simultaneous specific detection of Aβ42, Aβ40, Aβ38, and Aβ37 was performed using MSD's electro-chemiluminescence multiplex detection technology. In this assay purified monoclonal antibodies specific for Abeta37 (JRD/Aβ37/3), Abeta38 (J&JPRD/Aβ38/5), Abeta40 (JRF/cAβ40/28), and Abeta42 (JRF/cAβ42/26) were coated on MSD 4-plex plates. Briefly, the standards (a dilution of synthetic Aβ42, Aβ40, Aβ38, and Aβ37) were prepared in 1.5 ml Eppendorf tube in Ultraculture, with final concentrations ranging from 10000 to 0.3 pg/m. The samples and standards were co-incubated with Sulfo-tag labelled JRF/rAβ/2 antibody to the N-terminus of Aβ as detector antibody. 50 μl of conjugate/sample or conjugate/standards mixtures were then added to the antibody-coated plate. The plate was allowed to incubate overnight at 4° C. in order to allow formation of the antibody-amyloid complex. Following this incubation and subsequent wash steps the assay was finished by adding read buffer according to the manufacturer's instructions (Meso Scale Discovery, Gaitherburg, Md.).
(§6) The SULFO-TAG emits light upon electrochemical stimulation initiated at the electrode. MSD Sector instrument SI6000 was used for signal read-out.
In this model a Aβ42 lowering compared to untreated animals would be advantageous, in particular a Aβ42 lowering with at least 10%, more in particular a Aβ42 lowering with at least 20%. […]

Aβ40 = assay: In vivo efficacy: brain soluble Aβ40 in non-transgenic rodents (MSD electrochemiluminescence multiplex); design: species or system mouse; details: Mus musculus, po, 4 h, dose 30 mg/kg oral dosing, brain soluble fraction, animals sacrificed after 4 h, untreated animals (Ctrl) set at 100, read-out: Aβ40 (% vs Ctrl)_Mean
Text: as §1, §2, §3, §4, §5, §6
The results are shown in Table 5 (dose 30 mg/kg oral dosing) (value for untreated animals as control (Ctrl) was set at 100): […]

Row | SMILES | melting point [°C] | response vs control in vivo at 30 mg/kg (Aβ42) [%] | response vs control in vivo at 30 mg/kg (Aβ40) [%]
1 | C[C@@H]1Cn2c(ccc(-n3cnc(Cl)c3)c2=O)C(=O)N1Cc1cc(C(F)(F)F)cc(C(F)(F)F)c1 [compound 118] | 157.9 | 92 | 115
2 | Cc1cn(-c2ccc3n(c2=O)C[C@@H](C)N(Cc2ccc(F)c(F)c2)C3=O)cn1 [compound 133] | 198.1 | 87 | 77
3 | Cc1cn(-c2cc(F)c3n(c2=O)C[C@@H](C)N(Cc2cc(C(F)(F)F)cc(C(F)(F)F)c2)C3=O)cn1 [compound 158] | 137.1 | 97 | 98
